The test system of one data set is hEPO mRNA. The data set can be described thus: hEPO expression after subcutaneous administration to mice. Type of data set: in vivo, CD-1 mice. To be noted: 6 hr. time point, relative to MC3. On the procedure:
The numbers 1-11 in this figure correspond to MC3, PBS, and Compounds 18, 25, 48, 49, 111, 60, 168, 207, and 233, respectively.
FIG. 27 is a graph showing the hEPO mRNA expression in CD1-mice measured 3 h (left block), 6 h (middle block) and 24 h (right block) after subcutaneous administration of various nanoparticle compositions at 0.5 mpk. Numbers 1-9 refer to compositions containing an mRNA expressing hEPO and the following: 1: PBS, 2: Compound 18, 3: Compound 30; 4: Compound 96; 5: Compound 151; 6: Compound 98; 7: Compound 163; 8: Compound 164; 9: Compound 165.

Data set [1] can be described thus: One month toxicology evaluation in cynomolgus monkeys (serum ALT, AST, C5b9, MCP-1). The data set is classed as in vivo. Particulars: 1 mg/kg mRNA. On the procedure:
FIGS. 32A-32C are a series of graphs summarizing the results of a one month toxicology evaluation in rat and non-human primate. PBS (phosphate buffered saline) was used as a control. […] The serum levels were measured 24 post fifth dose (n=4). […] The serum levels were measured 24 post fifth dose (n=4).
FIGS. 33A and 33B are a pair of graphs summarizing the results of a one month toxicology evaluation in rats and non-human primates.
FIG. 38 is a graph showing mRNA levels in NHP after repeat dosing over the course of 29 days.

A further data set has as its system mouse liver tissue. The data set can be described thus: Disappearance of parent lipid and primary metabolite from mouse liver after 0.25 mg/kg mRNA on days 1, 8 and 15. Type of data set: in vivo. On the procedure:
In vitro metabolite identification studies using compound 18 were also performed. […] The disappearance of parent compound 18 and the primary metabolite, compound 166, from mouse liver tissue was measured after dosing 0.25 mg/kg mRNA on days 1, 8, and 15.

Another data set concerns Sprague Dawley rat. Nature of the data set: One-month toxicological evaluation with weekly dosing in rat. The data set is classed as in vivo. On the procedure: (§1) Serum ALT and AST levels: Samples were analyzed using a Modular Analytics analyzer.
(§2) Next, tolerability and safety of the compound 18-based LNPs in vivo was tested. A full toxicological evaluation of compound 18-based LNPs in both Sprague Dawley rat and cynomolgus monkey was performed using a standard one-month study with weekly dosing at three dose levels in each species. Rats were dosed at 0.05, 0.5, and 2 mg/kg and a non-human primates was dosed at 0.1, 0.3, and 1 mg/kg. LNP-related toxicities associated with MC3-based LNP systems are generally associated with immunological (cytokine and complement activation) and hepatic injury. […] FIGS. 32 and 33 highlight the day 30 levels of alanine transferase (ALT, FIG. 32A) and aspartate aminotransferase (AST, FIG. 32B), two indicators of liver damage.

In another data set the test system is cynomolgus monkey. Nature of the data set: One-month toxicological evaluation with weekly dosing in cynomolgus monkey. Type of data set: in vivo. On the procedure:
NHP studies: Nonhuman primate studies were conducted using naïve cynomolgus monkeys (cynos), 2-4 years old, weighing 2-6 kg. No treatment randomization or blinding methods were used for any of the animal studies. Sample sizes were determined by the resource equation method. For injection, mRNA-LNPs in phosphate buffered saline (PBS) were administered by 60-minute intravenous infusion using a temporary indwelling catheter inserted in a peripheral vein.
as §1
Serum C5b9 levels: C5b9 sample analysis was performed using an ELISA method. The kit used was Human C5b-9 ELISA Set and Reagent Set B from BD Bioscience. Study samples were analyzed in singlicate diluted 1/100.
bDNA for measurement of mRNA levels: mRNA sample analysis (bDNA method) was performed using the QuantiGene® 2.0 Reagent System kit from Affymetrix. Study samples were lysed prior to analysis using the QuantiGene Sample Processing Kit (Blood samples). Study samples were analyzed in duplicate diluted between 1/100 and 1/1250000.
as §2

Another data set deals with sC5b-9. The data set can be described thus: Complement activation: sC5b-9 levels in human cells contacted in vitro with nanoparticle compositions. The data set is classed as cell-based. On the procedure: Complement activation assists in the clearance of pathogens from an organism. As it is undesirable that a subject's body recognize a nanoparticle composition as a foreign invader, low complement system activation upon administration of such a composition is preferred. The complex sC5b-9 is a marker for the activation of the complement system. Thus, human cells were contacted in vitro with nanoparticle compositions according to Table 1A and were evaluated for sC5b-9 levels.

For a further data set, the system named is IP-10. The data set can be described thus: Cytokine induction (IP-10) in rats after intravenous administration. Type of data set: in vivo, rat. To be noted: for IP-10 induction: rat, 48 hours. On the procedure:
The expression of hEPO and cytokine induction in rats intravenously administered a nanoparticle composition at a dose of 2.0 mpk was measured at 6 h.
Table 19A summarizes the hEPO expression, IP-10 induction, liver and spleen levels, and alanine aminotransferase (ALT) and aspartate aminotransferase (AST) measured upon intravenous administration of formulations including Compounds 48, 49, and 50 to rat at 0.2 and 2 mpk and hEPO mRNA. hEPO concentrations were measured 6 hours after administration, while cytokine induction and liver and spleen levels were measured 48 hours after administration. hEPO and IP-10 concentrations are presented in pg/ml, while liver levels are provided in ng/g. ALT and AST levels are presented in international units.

A further data set relates to female CD-1 mice. The data set can be described thus: Luciferase expression after subcutaneous administration of lipid/mRNA formulations (whole body BLI). To be noted: 0.5 mpk. The data set is classed as in vivo. On the procedure:
The effect of the lipids of the disclosure on protein expression upon subcutaneous administration was studied. Formulations containing lipids of the disclosure and an mRNA expressing luciferase or hEPO were administered subcutaneously to female CD-1 mice at 0.5 mpk. Expression levels were obtained via whole body luminescent imaging (BLI) at 3, 6 and 24 hours after injection and expression levels in liver, spleen and at the injection site were evaluated ex vivo after 24 hours. […] See also Tables 35 and 36, and FIGS. 19 and 27.
Table 35 summarizes the luciferase expression levels using various nanoparticle compositions of the disclosure, and the luciferase expression levels using various nanoparticle compositions 6f the disclosure as compared to the luciferase expression level using an MC3 formulation after subcutaneous administration, as described above.

The nature of data set [2]: pH, osmolality and zeta potential of nanoparticle compositions. The data set is classed as physicochemical. To be noted: nanoparticle composition with hEPO mRNA (Table 30).
Data set [3] can be described thus: pKa / apparent pKa of nanoparticle compositions. To be noted: Table 1B; formulated with hEPO mRNA.
[4] abbreviates: 60 min infusion, dosed weekly, after fifth dose (n=4).

These results are taken from patent US10857105B2, “Compounds and compositions for intracellular delivery of therapeutic agents” (ModernaTX, Inc., priority 2017, dated 2020).

Regarding `CCCCCCCCCOC(=O)CCCCCCCN(CCO)CCCCCCCC(=O)OC(CCCCCCCC)CCCCCCCC` [Compound 18, Heptadecan-9-yl 8-((2-hydroxyethyl)(8-(nonyloxy)-8-oxooctyl)amino)octanoate], the “Novel lipid/MC3 expression ratio, s.c. hEPO 0.5 mpk” value in the data set with hEPO mRNA was determined as 4.26. For the same molecule, in data set [1] (setting [4]), the “Serum alanine aminotransferase levels” value is “No statistical difference between PBS pre-dose and day 30 levels”. Moreover, in data set [1] (setting [4]), the “Serum aspartate aminotransferase levels” value was “No statistical difference between PBS pre-dose and day 30 levels”. Besides, in [1] (day 1 and day 29 (n=4)), the MCP-1 serum concentration entry was “no statistical difference between PBS and Compound 18 at any other timepoint”. For the same molecule, the “clearance from mouse liver tissue” value in the data set on mouse liver tissue is “rapid clearance”. For the same molecule, the “ALT and AST levels, day 30, relative to PBS control” value in the data set with Sprague Dawley rat (any dose level) is reported as “minimal elevation”. Moreover, the toxicological findings result is recorded as “no adverse findings” in the data set on Sprague Dawley rat (weekly dosing one month, 0.05, 0.5 and 2 mg/kg); “minimal findings at all dose levels” in the data set on cynomolgus monkey (weekly dosing one month, 0.1, 0.3 and 1 mg/kg). The “monocyte chemo-attractive protein (MCP-1)” value with cynomolgus monkey is listed as “slight variation above baseline”. The “ALT and AST levels, day 30” value in the data set on cynomolgus monkey (1 mg/kg dose) was “at the same level as the control”. Also, in the data set with cynomolgus monkey (bDNA), the “circulating mRNA levels after each dose” value is “consistent exposures”.

For the molecule `CCCCCC=CCC=CCCCCCCCCC(CCCCCCCCC=CCC=CCCCCC)OC(=O)CCCN(C)C` (stereo not drawn) [MC3, heptatriaconta-6,9,28,31-tetraen-19-yl 4-(dimethylamino)butanoate, reference compound], the “Fold increase in sC5b-9 levels versus saline” value in the data set on sC5b-9 stood at 0.73. The molecule also yielded an IP-10 induction in the data set on IP-10 (intravenous 0.2 mpk) of 2 pg/mL. The molecule further gave an IP-10 induction with IP-10 (intravenous 2 mpk) of 596 pg/mL. The same molecule yielded an IP-10 in the data set with IP-10 (rats, intravenous 2.0 mpk, hEPO nanoparticle compositions, 6 hours) of 688.3 pg/mL. In addition, the “Lipid/MC3 AUC ratio (luciferase)” value in the data set on female CD-1 mice is listed as 1. In addition, the “Luciferase expression AUC” value with female CD-1 mice (BLI at 3, 6 and 24 hours) is given as 1.7127E+10 (p/s)*h. In data set [2], the Osmolality is recorded as 318 mOsm/kg, the Zeta potential is −3.64 mV and the pH came to 7.52. Also, the “Apparent pKa” value in data set [3] came to 6.35.
